Tests used:
STP10 [1] = biological target: T1, STP10 (Arabidopsis thaliana, UniProt Q9LT15); experiment: competition with [3H]-D-glucose uptake in yeast EBY-WV4000; assay type: cell-based; details: pH 5.0; 30 °C; 250 µM competitor against 10 µM D-glucose
T1 construct: full length 514 residues; S. cerevisiae expression, C-terminal thrombin site and His10 tag, tag cut with thrombin for structure (model residues 21-507, monomer); STP10 gene subcloned for Xenopus oocyte and yeast EBY-WV4000 uptake
T1 sequence (Q9LT15 1-514): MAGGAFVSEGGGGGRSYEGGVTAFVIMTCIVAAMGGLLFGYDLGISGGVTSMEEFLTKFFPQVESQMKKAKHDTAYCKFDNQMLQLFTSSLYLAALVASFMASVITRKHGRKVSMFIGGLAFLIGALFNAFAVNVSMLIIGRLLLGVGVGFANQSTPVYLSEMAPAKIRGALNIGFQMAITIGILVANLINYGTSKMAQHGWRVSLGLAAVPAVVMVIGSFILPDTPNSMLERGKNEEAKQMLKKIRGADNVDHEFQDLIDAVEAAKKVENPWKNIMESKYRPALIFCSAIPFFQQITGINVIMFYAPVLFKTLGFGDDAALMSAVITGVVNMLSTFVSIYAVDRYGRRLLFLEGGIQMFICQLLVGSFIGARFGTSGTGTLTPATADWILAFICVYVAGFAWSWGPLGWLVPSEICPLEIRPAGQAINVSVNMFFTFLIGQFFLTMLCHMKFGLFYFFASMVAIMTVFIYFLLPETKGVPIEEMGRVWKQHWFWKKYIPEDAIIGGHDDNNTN

STP10 [2] = biological target: T1, STP10; experiment: [3H]-2-deoxy-D-glucose uptake in yeast EBY-WV4000; assay type: cell-based; details: pH 5.0; 30 °C; labelled compound
STP10 [3] = biological target: T1, STP10; experiment: X-ray crystal structure, […] Å; details: central binding site; outward occluded state; lipidic cubic phase, pH 4.5
STP10 [4] = biological target: T1, STP10; experiment: isothermal titration calorimetry, purified protein, one-site model; details: pH 5.5; 20 °C; 0.03% DDM; read-out: apparent Kd

OC[C@H]1OC(O)[C@H](O)[C@@H](O)[C@H]1O (some centres unmarked) [galactose]
competition (STP10 [1]): Competition assays using radioactively labeled glucose confirm galactose and mannose as potential substrates

OC[C@H]1OC(O)C[C@@H](O)[C@@H]1O (some centres unmarked) [2-deoxyglucose]
[3H]-2-deoxy-D-glucose uptake in yeast EBY-WV4000 (STP10 [2]): The protein can transport the non-metabolized glucose analog 2-deoxyglucose

OC[C@H]1OC(O)[C@@H](O)[C@@H](O)[C@@H]1O (some centres unmarked) [mannose]
competition (STP10 [1]): Competition assays using radioactively labeled glucose confirm galactose and mannose as potential substrates

OC[C@H]1OC(O)[C@H](O)[C@@H](O)[C@@H]1O (some centres unmarked) [glucose]
X-ray crystal structure, 2.4 Å (STP10 [3]): contains unambiguous density for glucose
Kd (STP10 [4]): 3.2 µM
